The structures appear in SMILES notation. Inconclusive results and toxic doses are left out.

In PubChem BioAssay AID248 (DTP/NCI, 2004) one finds T/C data, which are given here for five compounds.

The test concerns L1210 leukemia ip in BDF1 mice, survival T/C. Put plainly: NCI In Vivo Anticancer Drug Screen. Data for tumor model L1210 Leukemia (intraperitoneal) in B6D2F1 (BDF1) mice. The conditions noted are these: endpoint: mean survival time, higher = longer survival. The method in brief:
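Antitumor effect is assessed in tumor-bearing animals. Survival in the compound arm is compared with a vehicle-dosed control arm and expressed as their quotient.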

Setting [1] is: dose: 100.0 mg/kg/injection, schedule: Q04DX003 (ip), vehicle: Klucel (hydroxypropylcellulose) (HPC).
The mark [2] stands for this setting: dose: 200.0 mg/kg/injection, schedule: Q04DX003 (ip), vehicle: Klucel (hydroxypropylcellulose) (HPC).

Consider `CC1=C/C(=N\NC(N)=O)CCC1`, for which the T/C runs as follows: (dose: 100.0 mg/kg/injection, schedule: Q04DX002 (ip), vehicle: Klucel (hydroxypropylcellulose) (HPC)) 97 % of control; (dose: 200.0 mg/kg/injection, schedule: Q04DX002 (ip), vehicle: Klucel (hydroxypropylcellulose) (HPC)) 86 % of control; (dose: 400.0 mg/kg/injection, schedule: Q04DX002 (ip), vehicle: Klucel (hydroxypropylcellulose) (HPC)) 105 % of control.

As for `Oc1ccccc1C=NCCCN1CC1.[Ni+2].[O-]c1ccccc1C=NCCCN1CC1`, the T/C (dose: 100.0 mg/kg/injection, schedule: Q01DX001 (ip), vehicle: Klucel (hydroxypropylcellulose) (HPC)) was 114 % of control; the T/C (dose: 200.0 mg/kg/injection, schedule: Q01DX001 (ip), vehicle: Klucel (hydroxypropylcellulose) (HPC)) was 87 % of control; the T/C (dose: 400.0 mg/kg/injection, schedule: Q01DX001 (ip), vehicle: Klucel (hydroxypropylcellulose) (HPC)) was 104 % of control.

With `O=C(Cc1ccc(-c2ccccc2)cc1)c1ccccc1`, the T/C runs as follows: (dose: 100.0 mg/kg/injection, schedule: Q01DX001 (ip), vehicle: saline with Tween-80) 94 % of control; (dose: 200.0 mg/kg/injection, schedule: Q01DX001 (ip), vehicle: saline with Tween-80) 93 % of control; (dose: 400.0 mg/kg/injection, schedule: Q01DX001 (ip), vehicle: saline with Tween-80) 91 % of control.

Regarding `O=[N+]([O-])c1ccc2c(c1)=N/C(=N\c1nc(O)c(O)[nH]1)N=2`, the T/C runs as follows: under setting [1], 101 % of control; under setting [2], 98 % of control; (dose: 400.0 mg/kg/injection, schedule: Q04DX003 (ip), vehicle: Klucel (hydroxypropylcellulose) (HPC)) 104 % of control.

Take `Nc1ccc(CCCCc2c(N)nc(N)nc2N)cc1`: the T/C under setting [1] is 97 % of control and the T/C under setting [2] is 93 % of control.
